Assay results from EP4678638A1, “NEW E3 UBIQUITIN LIGASE LIGAND, PROTEIN DEGRADATION AGENT AND USE THEREOF” (priority 2023, dated 2024).

Legend:
[1] = biological target: T1, ALK (Homo sapiens, UniProt Q96SW2+Q9HC35+Q9UM73); assay: Western blot degradation of ALK (H2228 Cell); assay type: cell-based; conditions: Table D5
T1 construct: evaluate the effects of the compounds of the present disclosure on the expression of target proteins in cells; endogenous in cells; host or cells: H2228
Procedure, shortened: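 Degradation is assessed by immunoblotting lysates of treated cells. Target bands are quantified by grayscale and normalised to an internal control, so degradation rate equals 100% minus % remaining.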

[2] = system: MDA-MB-231; assay: CCK-8 proliferation, MDA-MB-231; assay type: cell-based; conditions: Homo sapiens; Table B6, compounds designed based on the ALK inhibitors; MDA-MB-231 cells; read-out: Inhibitory activity (IC50, nM) on tumor cell proliferation, MDA-MB-231
Protocol: The tumor cells used herein were cultured in a cell culture medium listed in table A1 at 37°C in an incubator with 5% CO2. Prior to experimentation, all cell lines used were correctly identified by STR profiling, and tested negative for mycoplasma contamination using a mycoplasma detection kit through routine screenings. Table A1. Tumor cells and cell culture medium used in the present disclosure
IC50 values of the compounds of the present disclosure (including the compounds in Table 1, and compounds of examples) were measured using the Meilun Cell Counting Kit-8 kit from Dalian Meilun Biotech Co., Ltd. Assay details are as follows: tumor cells were seeded in a 96-well plate at a density listed in Table A2. After 24h, 100 µL of the inoculated cells were treated with 0.5µL of the compounds of the present disclosure (including the compounds in Tables 1 and 2, and compounds of examples) at 10 different successively decreasing concentrations (starting at the highest concentration of 10µM; 5-fold serial dilutions). After the cells were treated with the compounds of the present disclosure for a period of time, the cell viability detection reagent was added to the culture medium for cell viability assessment according to the instructions provided with the CCK-8 kit. […] The growth inhibition of the compounds of the present disclosure on cells was plotted by Prism Graphpad software, and the IC50 values of the compounds of the present disclosure were calculated therefrom. […] Seeding protocol and treatment time for tumor cells

[3] = system: H2228; assay: CCK-8 proliferation, NCI-H2228 (H2228); assay type: cell-based; conditions: Homo sapiens, NCI-H2228; Table B6, compounds designed based on the ALK inhibitors; H2228 cells; read-out: Inhibitory activity (IC50, nM) on tumor cell proliferation, H2228
Procedure, shortened: (§1)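 CCK-8 viability readout; IC50 from growth-inhibition curve fitting. Cells plated, dosed 24h later with a 10-point series, top 10µM, 5-fold steps. Culture at 37°C, 5% CO2.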

[4] = system: SR; assay: CCK-8 proliferation, SR; assay type: cell-based, Human; conditions: Homo sapiens; Table B6, compounds designed based on the ALK inhibitors; SR cells; read-out: Inhibitory activity (IC50, nM) on tumor cell proliferation, SR
Procedure, shortened: as §1

[5] = system: MCF7; assay: CCK-8 proliferation, MCF7 (MCF-7); assay type: cell-based; conditions: Homo sapiens, MCF7; Table B6, compounds designed based on the ALK inhibitors; MCF-7 cells; read-out: Inhibitory activity (IC50, nM) on tumor cell proliferation, MCF-7
Procedure, shortened: as §1

[6] = system: H1975; assay: CCK-8 proliferation, NCI-H1975 (H1975); assay type: cell-based, Human; conditions: Homo sapiens, NCI-H1975; Table B6, compounds designed based on the ALK inhibitors; H1975 cells; read-out: Inhibitory activity (IC50, nM) on tumor cell proliferation, H1975
Procedure, shortened: as §1

T1 sequence (Q9HC35+Q9UM73 fused): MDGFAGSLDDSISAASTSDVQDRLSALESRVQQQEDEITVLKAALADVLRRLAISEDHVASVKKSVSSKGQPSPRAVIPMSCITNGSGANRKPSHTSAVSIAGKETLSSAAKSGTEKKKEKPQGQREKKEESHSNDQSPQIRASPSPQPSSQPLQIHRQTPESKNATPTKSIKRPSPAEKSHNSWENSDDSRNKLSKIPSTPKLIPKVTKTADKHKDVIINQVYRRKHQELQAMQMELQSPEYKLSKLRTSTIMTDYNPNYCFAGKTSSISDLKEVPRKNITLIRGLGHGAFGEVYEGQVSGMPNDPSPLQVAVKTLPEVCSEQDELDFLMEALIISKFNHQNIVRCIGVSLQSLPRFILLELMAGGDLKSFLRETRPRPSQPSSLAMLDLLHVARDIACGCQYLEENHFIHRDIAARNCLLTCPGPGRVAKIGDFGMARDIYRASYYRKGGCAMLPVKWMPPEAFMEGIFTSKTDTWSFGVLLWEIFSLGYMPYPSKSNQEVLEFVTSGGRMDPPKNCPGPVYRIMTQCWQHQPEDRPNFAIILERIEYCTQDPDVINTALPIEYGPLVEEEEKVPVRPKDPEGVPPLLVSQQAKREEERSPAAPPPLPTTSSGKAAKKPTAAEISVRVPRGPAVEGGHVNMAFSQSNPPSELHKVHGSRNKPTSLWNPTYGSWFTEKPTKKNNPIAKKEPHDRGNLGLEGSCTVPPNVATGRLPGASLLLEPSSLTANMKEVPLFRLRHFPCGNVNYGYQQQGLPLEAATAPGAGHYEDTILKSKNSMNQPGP
T1 sequence (Q96SW2 whole entry): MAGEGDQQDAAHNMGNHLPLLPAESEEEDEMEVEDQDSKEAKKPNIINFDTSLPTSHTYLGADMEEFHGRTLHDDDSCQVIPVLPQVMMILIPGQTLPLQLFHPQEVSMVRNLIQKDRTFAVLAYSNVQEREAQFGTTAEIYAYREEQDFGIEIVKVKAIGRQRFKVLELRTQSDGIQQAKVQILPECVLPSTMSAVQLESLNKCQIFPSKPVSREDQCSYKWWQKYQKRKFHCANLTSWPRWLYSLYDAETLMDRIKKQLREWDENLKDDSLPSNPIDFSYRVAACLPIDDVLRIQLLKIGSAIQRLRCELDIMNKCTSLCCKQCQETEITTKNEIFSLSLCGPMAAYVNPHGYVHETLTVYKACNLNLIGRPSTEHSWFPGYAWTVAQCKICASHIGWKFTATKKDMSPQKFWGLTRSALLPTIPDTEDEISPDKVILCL
T1 sequence (Q16531 whole entry partner): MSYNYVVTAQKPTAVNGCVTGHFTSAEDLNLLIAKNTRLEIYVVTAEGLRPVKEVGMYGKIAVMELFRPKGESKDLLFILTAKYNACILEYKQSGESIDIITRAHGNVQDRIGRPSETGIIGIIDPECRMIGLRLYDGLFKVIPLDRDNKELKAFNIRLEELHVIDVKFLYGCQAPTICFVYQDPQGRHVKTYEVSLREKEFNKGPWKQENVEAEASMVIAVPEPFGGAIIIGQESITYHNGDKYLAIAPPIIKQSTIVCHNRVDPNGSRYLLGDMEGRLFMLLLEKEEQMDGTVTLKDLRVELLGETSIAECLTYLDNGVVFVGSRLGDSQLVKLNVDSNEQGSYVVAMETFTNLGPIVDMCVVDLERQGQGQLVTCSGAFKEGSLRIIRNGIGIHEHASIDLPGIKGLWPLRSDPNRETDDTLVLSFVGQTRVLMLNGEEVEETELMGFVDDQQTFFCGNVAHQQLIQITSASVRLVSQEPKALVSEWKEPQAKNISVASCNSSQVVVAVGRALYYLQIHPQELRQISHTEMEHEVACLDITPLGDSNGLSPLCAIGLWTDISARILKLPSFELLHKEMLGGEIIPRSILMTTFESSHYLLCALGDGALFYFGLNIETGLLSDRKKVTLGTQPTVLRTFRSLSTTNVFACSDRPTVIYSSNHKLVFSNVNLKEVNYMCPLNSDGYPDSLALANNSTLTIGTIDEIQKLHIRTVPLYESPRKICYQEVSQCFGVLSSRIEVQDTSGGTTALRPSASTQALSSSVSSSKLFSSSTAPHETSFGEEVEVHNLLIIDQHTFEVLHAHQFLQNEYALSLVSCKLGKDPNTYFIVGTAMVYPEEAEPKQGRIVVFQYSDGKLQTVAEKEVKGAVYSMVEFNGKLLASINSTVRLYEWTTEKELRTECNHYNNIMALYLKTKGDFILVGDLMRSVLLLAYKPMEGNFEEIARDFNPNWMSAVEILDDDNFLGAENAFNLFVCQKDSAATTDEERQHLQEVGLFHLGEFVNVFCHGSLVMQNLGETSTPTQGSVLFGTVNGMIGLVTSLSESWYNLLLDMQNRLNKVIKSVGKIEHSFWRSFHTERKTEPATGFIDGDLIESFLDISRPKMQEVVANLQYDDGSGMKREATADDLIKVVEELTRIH

IC50 [2]	IC50 [3]	IC50 [5]	IC50 [6]	SMILES	Degradation of substrate protein ALK (substrate protein remaining %) [1]	IC50 [4]
500 to 1000 nM	100 to 500 nM	100 to 500 nM	500 to 1000 nM	COc1cc(N2CCC(N(C)Cc3cccc(NC4CCC(=O)NC4=O)c3)CC2)ccc1Nc1ncc(Cl)c(Nc2ccccc2P(C)(C)=O)n1 (centres unmarked) [GT-07692, 3-((3-(((1-(4-((5-chloro-4-((2-(dimethylphosphoryl)phenyl)amino)pyrimidin-2-yl)amino)-3-methoxyphenyl)piperidin-4-yl)(methyl)amino)methyl)phenyl)amino)piperidine-2,6-dione]	A (A is defined as 0% ≤ substrate protein remaining % ≤ 80%)	10 to 50 nM
500 to 1000 nM	50 to 100 nM	500 to 1000 nM	500 to 1000 nM	COc1cc(N2CCC(N3CCN(Cc4ccc(C5CCC(=O)NC5=O)cn4)CC3)CC2)ccc1Nc1ncc(Cl)c(Nc2ccccc2P(C)(C)=O)n1 (centres unmarked) [GT-07613, 3-(6-((4-(1-(4-((5-chloro-4-((2-(dimethylphosphoryl)phenyl)amino)pyrimidin-2-yl)amino)-3-methoxyphenyl)piperidin-4-yl)piperazin-1-yl)methyl)pyridin-3-yl)piperidine-2,6-dione]	A (A is defined as 0% ≤ substrate protein remaining % ≤ 80%)	1 to 10 nM
100 to 500 nM	50 to 100 nM	100 to 500 nM	100 to 500 nM	COc1cc(N2CCC(N3CCN(Cc4cccc(NC5CCC(=O)NC5=O)c4)CC3)CC2)ccc1Nc1ncc(Cl)c(Nc2ccccc2P(C)(C)=O)n1 (centres unmarked) [GT-07605, 3-((3-((4-(1-(4-((5-chloro-4-((2-(dimethylphosphoryl)phenyl)amino)pyrimidin-2-yl)amino)-3-methoxyphenyl)piperidin-4-yl)piperazin-1-yl)methyl)phenyl)amino)pip eridine-2,6-dione]	A (A is defined as 0% ≤ substrate protein remaining % ≤ 80%)	1 to 10 nM
500 to 1000 nM	100 to 500 nM	500 to 1000 nM	500 to 1000 nM	COc1cc(N2CCC(N(C)Cc3cncc(C4CCC(=O)NC4=O)c3)CC2)ccc1Nc1ncc(Cl)c(Nc2ccccc2P(C)(C)=O)n1 (centres unmarked) [GT-07699, 3-(5-(((1-(4-((5-chloro-4-((2-(dimethylphosphoryl)phenyl)amino)pyrimidin-2-yl)amino)-3-methoxyphenyl)piperidin-4-yl)(methyl)amino)methyl)pyridin-3-yl)piperidine-2,6-dione]	A (A is defined as 0% ≤ substrate protein remaining % ≤ 80%)	10 to 50 nM
100 to 500 nM	100 to 500 nM	50 to 100 nM	–	COc1cc(N2CCN(Cc3cncc(C4CCC(=O)NC4=O)c3)CC2)ccc1Nc1ncc(Cl)c(Nc2ccccc2P(C)(C)=O)n1 (centres unmarked) [GT-07714, 3-(5-((4-(4-((5-chloro-4-((2-(dimethylphosphoryl)phenyl)amino)pyrimidin-2-yl)amino)-3-methoxyphenyl)piperazin-1-yl)methyl)pyridin-3-yl)piperidine-2,6-dione]	A (A is defined as 0% ≤ substrate protein remaining % ≤ 80%)	10 to 50 nM
